Reference: PubChem BioAssay (NCI)
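Dose response: 5 concentrations. Exposure: 48 h. Format: 96-well plates. Endpoint: linear interpolation; highest concentration if not reached. TGI: concentration producing complete growth inhibition.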

Columns and labels:
Test in all cases: NCI anticancer screen, dose series, 48 h
NCI-H226 lung = tested on: NCI-H226 lung
SN12C renal = tested on: SN12C renal
HCC-2998 colon = tested on: HCC-2998 colon
BT-549 breast = tested on: BT-549 breast
SF-295 CNS = tested on: SF-295 CNS
SK-MEL-5 melanoma = tested on: SK-MEL-5 melanoma
SW-620 colon = tested on: SW-620 colon
HCT-116 colon = tested on: HCT-116 colon
CCRF-CEM leukemia = tested on: CCRF-CEM leukemia
A549 NSCLC = tested on: A549 NSCLC
RPMI-8226 leukemia = tested on: RPMI-8226 leukemia
MOLT-4 leukemia = tested on: MOLT-4 leukemia
NCI-H460 lung = tested on: NCI-H460 lung
HCT-15 colon = tested on: HCT-15 colon
HOP-62 NSCLC = tested on: HOP-62 NSCLC
MCF7 breast = tested on: MCF7 breast
UACC-257 melanoma = tested on: UACC-257 melanoma
PC-3 prostate = tested on: PC-3 prostate
LOX IMVI melanoma = tested on: LOX IMVI melanoma
MDA-MB-435 = tested on: MDA-MB-435

## COCOC1/C=C/CCCCC2=C(C)C=C(C1)O2 (stereo not given)
NCI-H226 lung
  TGI: > 100 µM
SN12C renal
  TGI: > 100 µM
HCC-2998 colon
  TGI: > 100 µM
BT-549 breast
  TGI: > 100 µM
SF-295 CNS
  TGI: > 100 µM
SK-MEL-5 melanoma
  TGI: > 100 µM
SW-620 colon
  TGI: > 100 µM
HCT-116 colon
  TGI: > 100 µM
CCRF-CEM leukemia
  TGI: > 100 µM
A549 NSCLC
  TGI: > 100 µM
RPMI-8226 leukemia
  TGI: > 100 µM
MOLT-4 leukemia
  TGI: > 100 µM
NCI-H460 lung
  TGI: > 100 µM
HCT-15 colon
  TGI: > 100 µM
HOP-62 NSCLC
  TGI: > 100 µM
MCF7 breast
  TGI: > 100 µM
UACC-257 melanoma
  TGI: > 100 µM
PC-3 prostate
  TGI: > 100 µM
LOX IMVI melanoma
  TGI: > 100 µM
MDA-MB-435
  TGI: > 100 µM

## COc1cccc2c(N)c3cccc(C(=O)NCCN(C)C)c3nc12
NCI-H226 lung
  TGI: 0.386 µM
SN12C renal
  TGI: 0.488 µM
HCC-2998 colon
  TGI: 0.971 µM
BT-549 breast
  TGI: 4.95 µM
SF-295 CNS
  TGI: 2.01 µM
SK-MEL-5 melanoma
  TGI: 2.08 µM
SW-620 colon
  TGI: 2.71 µM
HCT-116 colon
  TGI: 0.726 µM
CCRF-CEM leukemia
  TGI: 0.288 µM
A549 NSCLC
  TGI: 2.16 µM
RPMI-8226 leukemia
  TGI: 3.87 µM
MOLT-4 leukemia
  TGI: 0.264 µM
NCI-H460 lung
  TGI: 1.72 µM
HCT-15 colon
  TGI: 21.2 µM
HOP-62 NSCLC
  TGI: 0.833 µM
MCF7 breast
  TGI: 1.57 µM
UACC-257 melanoma
  TGI: 3.41 µM
PC-3 prostate
  TGI: 1.7 µM
LOX IMVI melanoma
  TGI: 0.472 µM
MDA-MB-435
  TGI: 1.18 µM

## NCC1CCN(c2nc3ccccc3c3c2CCCC3)CC1
NCI-H226 lung
  TGI: 34.1 µM
SN12C renal
  TGI: 22.4 µM
HCC-2998 colon
  TGI: 3.46 µM
BT-549 breast
  TGI: 28 µM
SF-295 CNS
  TGI: 26.7 µM
SK-MEL-5 melanoma
  TGI: 7.62 µM
SW-620 colon
  TGI: 9.34 µM
HCT-116 colon
  TGI: 9.91 µM
CCRF-CEM leukemia
  TGI: 14.2 µM
A549 NSCLC
  TGI: 24.9 µM
RPMI-8226 leukemia
  TGI: 6.3 µM
MOLT-4 leukemia
  TGI: 11.7 µM
NCI-H460 lung
  TGI: 17.6 µM
HCT-15 colon
  TGI: 14.9 µM
HOP-62 NSCLC
  TGI: 32.1 µM
MCF7 breast
  TGI: 15 µM
UACC-257 melanoma
  TGI: 6.84 µM
PC-3 prostate
  TGI: 22.5 µM
LOX IMVI melanoma
  TGI: 16 µM
MDA-MB-435
  TGI: 7.13 µM

## CC(C)Sc1nc(C#N)cc2c1CCCC2
NCI-H226 lung
  TGI: > 100 µM
SN12C renal
  TGI: > 100 µM
HCC-2998 colon
  TGI: > 100 µM
BT-549 breast
  TGI: > 100 µM
SF-295 CNS
  TGI: > 100 µM
SK-MEL-5 melanoma
  TGI: 33.2 µM
SW-620 colon
  TGI: > 100 µM
HCT-116 colon
  TGI: > 100 µM
CCRF-CEM leukemia
  TGI: 55.8 µM
A549 NSCLC
  TGI: > 100 µM
RPMI-8226 leukemia
  TGI: 68.9 µM
MOLT-4 leukemia
  TGI: 61.6 µM
NCI-H460 lung
  TGI: > 100 µM
HCT-15 colon
  TGI: > 100 µM
HOP-62 NSCLC
  TGI: > 100 µM
MCF7 breast
  TGI: > 100 µM
UACC-257 melanoma
  TGI: > 100 µM
PC-3 prostate
  TGI: > 100 µM
LOX IMVI melanoma
  TGI: 70.3 µM
MDA-MB-435
  TGI: > 100 µM

## CC(C)c1ccc2[nH]c(O)c(-c3[nH]c4ccccc4c3N=O)c2c1
NCI-H226 lung
  TGI: 29.4 µM
SN12C renal
  TGI: 16.8 µM
HCC-2998 colon
  TGI: 16.1 µM
BT-549 breast
  TGI: 19.4 µM
SF-295 CNS
  TGI: 16.3 µM
SK-MEL-5 melanoma
  TGI: 15.8 µM
SW-620 colon
  TGI: 25.2 µM
HCT-116 colon
  TGI: 14 µM
CCRF-CEM leukemia
  TGI: 12.9 µM
A549 NSCLC
  TGI: 22.2 µM
RPMI-8226 leukemia
  TGI: 22.3 µM
MOLT-4 leukemia
  TGI: 15.1 µM
NCI-H460 lung
  TGI: 15.2 µM
HCT-15 colon
  TGI: 14.8 µM
HOP-62 NSCLC
  TGI: 25.2 µM
MCF7 breast
  TGI: 5.71 µM
UACC-257 melanoma
  TGI: 24.5 µM
PC-3 prostate
  TGI: 19.4 µM
LOX IMVI melanoma
  TGI: 17.7 µM
MDA-MB-435
  TGI: 20.5 µM
